Experimental data reported in ChEMBL document CHEMBL6087460, “Generating a Peptide Library Using the Repeats of Amino Acid Scaffolds Created by Sliding the Framework of a 7-mer Human Chemerin Segment and Discovery of Potent Antibacterial and Antimycobacterial Peptides” (J Med Chem, 2025).
Activity calls are given as the source filed them. No cut-off for these calls is given here.

How the values were obtained:
[1] = Toxicity in BALB/c mouse infected with Escherichia coli ATCC 25922 assessed as animal survival at 2.5 mg/kg, iv administered thrice at 1,3 and 5 hrs post-infection measured after 7 days; type: organism-based; conditions: in vivo, 168 h, time 7 day
[2] = system: Staphylococcus aureus; assay: Antibacterial activity against methicillin-resistant Staphylococcus aureus 33591 incubated for 16 to 18 hrs by broth dilution assay; type: functional; conditions: time 16-18 hrs
[3] = system: Staphylococcus aureus; assay: Induction of resistance development in methicillin-resistant Staphylococcus aureus BAA-44 assessed as fold increase in MIC at sub-MIC measured after 30 passages relative to control; type: functional
[4] = system: Escherichia coli; assay: Induction of resistance development in Escherichia coli ATCC 25922 assessed as fold increase in MIC at sub-MIC measured after 30 passages relative to control; type: functional
[5] = system: Mycolicibacterium smegmatis; assay: Disruption of cell membrane integrity in Mycobacterium smegmatis incubated for 2 hrs by EtBr uptake assay; type: functional, organism-based
[6] = system: Staphylococcus aureus; assay: Antibacterial activity against Staphylococcus aureus ATCC 25923 incubated for 16 to 18 hrs in presence of 10 percent human serum by broth dilution assay; type: functional; conditions: time 16-18 hrs
[7] = system: Escherichia coli; assay: Bactericidal activity against Escherichia coli ATCC 25922 incubated for 16 to 18 hrs; type: functional; conditions: time 16-18 hrs
[8] = system: Staphylococcus aureus; assay: Bactericidal activity against Staphylococcus aureus ATCC 25923 at MIC incubated for 30 mins by time kill assay; type: functional, organism-based
[9] = Stability in 10 percent human serum assessed as compound remaining measured after 60 mins by RP-HPLC analysis; type: ADME, cell-free; conditions: 10% human serum, read-out: Stability
[10] = system: Escherichia coli; assay: Antibacterial activity against Escherichia coli ATCC 25922 infected in BALB/c mouse assessed as bacterial count in liver at 5 mg/kg, iv administered thrice at 1,3 and 5 hrs post-infection measured after 24 hrs post-last dose (Rvb ~ 2.3 x10^7 CFU/mL); type: functional; conditions: time 29 hrs
[11] = system: Escherichia coli; assay: Antibacterial activity against Escherichia coli ATCC 25922 infected in BALB/c mouse assessed as bacterial count in blood at 5 mg/kg, iv administered thrice at 1,3 and 5 hrs post-infection measured after 24 hrs post-last dose (Rvb ~ 9.6 x10^6 CFU/mL); type: functional; conditions: time 29 hrs
[12] = system: Staphylococcus aureus; assay: Antibacterial activity against Staphylococcus aureus ATCC 25923 incubated for 16 to 18 hrs by broth dilution assay; type: functional; conditions: time 16-18 hrs
[13] = system: Bacillus subtilis; assay: Antibacterial activity against Bacillus subtilis 6633 incubated for 16 to 18 hrs by broth dilution assay; type: functional; conditions: time 16-18 hrs
[14] = system: Staphylococcus aureus; assay: Induction of membrane depolarization in Staphylococcus aureus ATCC 25923 by diSC3-5 dye based analysis; type: functional, organism-based
[15] = system: Escherichia coli; assay: Bactericidal activity against Escherichia coli ATCC 25922 at MIC incubated for 45 mins by time kill assay; type: functional, organism-based
[16] = Toxicity in mouse assessed as change in serum ALT level at 15 mg/kg, iv administered each day for 5 days measured after 7 days post-last dose; type: organism-based; conditions: in vivo, 120 h, time 5 day
[17] = system: Escherichia coli; assay: Induction of cell membrane damage in Escherichia coli ATCC 25922 at 3 times MIC incubated for 60 mins by SEM analysis; type: functional, organism-based
[18] = Toxicity in BALB/c mouse infected with Escherichia coli ATCC 25922 assessed as animal survival at 5 mg/kg, iv administered thrice at 1,3 and 5 hrs post-infection measured after 7 days; type: organism-based; conditions: in vivo, 168 h, time 7 day
[19] = system: Staphylococcus aureus; assay: Antibacterial activity against methicillin-resistant Staphylococcus aureus BAA-44 incubated for 16 to 18 hrs by broth dilution assay; type: functional; conditions: time 16-18 hrs
[20] = system: Escherichia coli; assay: Disruption of membrane integrity in Escherichia coli ATCC 25922 by PI staining based analysis; type: functional, organism-based
[21] = Toxicity in BALB/c mouse assessed as change in ALT level at 15 mg/kg, iv administered thrice at 2 hrs interval measured after 7 days; type: organism-based; conditions: in vivo, 168 h, time 7 day
[22] = system: Escherichia coli; assay: Induction of membrane depolarization in Escherichia coli ATCC 25922 by diSC3-5 dye based analysis; type: functional, organism-based
[23] = system: Mycolicibacterium smegmatis; assay: Antimycobacterial activity against Mycobacterium smegmatis assessed as reduction in bacterial growth at 2 times MIC pretreated for 1 hr followed by compound removal and subsequent culturing in fresh media without compound for 24 hrs measured after 4 days; type: functional, organism-based
[24] = system: Staphylococcus aureus; assay: Induction of resistance development in Staphylococcus aureus ATCC 25923 assessed as fold increase in MIC at sub-MIC measured after 30 passages relative to control; type: functional
[25] = system: Escherichia coli; assay: Bactericidal activity against Escherichia coli ATCC 25922 at MIC incubated for 30 mins by time kill assay; type: functional, organism-based
[26] = system: Staphylococcus aureus; assay: Disruption of membrane integrity in Staphylococcus aureus ATCC 25923 by PI staining based analysis; type: functional, organism-based
[27] = system: Escherichia coli; assay: Antibacterial activity against Escherichia coli ATCC 25922 incubated for 16 to 18 hrs in presence of 10 percent human serum by broth dilution assay; type: functional; conditions: time 16-18 hrs
[28] = system: Escherichia coli; assay: Antibacterial activity against Escherichia coli ATCC 25922 infected in BALB/c mouse assessed as bacterial count in kidney at 5 mg/kg, iv administered thrice at 1,3 and 5 hrs post-infection measured after 24 hrs post-last dose (Rvb ~ 1.8 x10^7 CFU/mL); type: functional; conditions: time 29 hrs
[29] = Toxicity in BALB/c mouse assessed as change in AST level at 15 mg/kg, iv administered thrice at 2 hrs interval measured after 7 days; type: organism-based; conditions: in vivo, 168 h, time 7 day
[30] = system: Staphylococcus aureus; assay: Bactericidal activity against Staphylococcus aureus ATCC 25923 at MIC incubated for 45 mins by time kill assay; type: functional, organism-based
[31] = Toxicity in BALB/c mouse infected with Mycobacterium bovis BCG assessed as animal survival at 2.5 to 5 mg/kg, iv administered once a day for 2 weeks; type: organism-based; conditions: in vivo, 336 h, dose 2.5-5 mg/kg
[32] = Cytotoxicity against mouse 3T3-L1 cells assessed as cell viability at 100 uM incubated for 24 hrs by MTT assay relative to control; type: toxicity, cell-based; conditions: 3T3-L1 cells, read-out: Activity
[33] = system: Staphylococcus aureus; assay: Disruption of plasma membrane integrity in Staphylococcus aureus ATCC 25923 by SYTOX-Green uptake assay; type: functional, organism-based
[34] = Hemolytic activity in human RBC measured after 40 mins by absorbance based assay; type: toxicity, cell-based, Erythrocyte; conditions: human red blood cells
[35] = system: Escherichia coli; assay: Antibacterial activity against Escherichia coli ATCC 25922 incubated for 16 to 18 hrs by broth dilution assay; type: functional; conditions: time 16-18 hrs
[36] = system: Escherichia coli; assay: Antibacterial activity against Escherichia coli ATCC 25922 infected in BALB/c mouse assessed as bacterial count in spleen at 5 mg/kg, iv administered thrice at 1,3 and 5 hrs post-infection measured after 24 hrs post-last dose (Rvb ~ 1.9 x10^7 CFU/mL); type: functional; conditions: time 29 hrs
[37] = Toxicity in BALB/c mouse assessed as animal survival at 15 mg/kg, iv administered thrice at 2 hrs interval measured after 7 days; type: organism-based; conditions: in vivo, 168 h, time 7 day
[38] = system: Pseudomonas aeruginosa; assay: Antibacterial activity against Pseudomonas aeruginosa ATCC BAA-427 incubated for 16 to 18 hrs by broth dilution assay; type: functional; conditions: time 16-18 hrs
[39] = system: Mycolicibacterium smegmatis; assay: Antitubercular activity against Mycobacterium smegmatis incubated for 24 hrs by rezasurin dye based assay; type: functional
[40] = Toxicity in mouse assessed as animal survival at 15 mg/kg, iv administered each day for 5 days measured after 7 days post-last dose; type: organism-based; conditions: in vivo, 120 h, time 5 day
[41] = Retention time of compound by RP-HPLC method; type: physicochemical
[42] = system: Staphylococcus aureus; assay: Induction of resistance development in methicillin-resistant Staphylococcus aureus 33591 assessed as fold increase in MIC at sub-MIC measured after 30 passages relative to control; type: functional
[43] = Hemolytic activity in human RBC assessed as disruption of membrane integrity by Alexa Fluor-Annexin V staining based analysis; type: toxicity, cell-based; conditions: erythrocyte
[44] = system: Staphylococcus aureus; assay: Induction of cell membrane damage in Staphylococcus aureus ATCC 25923 at 3 times MIC incubated for 60 mins by SEM analysis; type: functional, organism-based
[45] = Cytotoxicity against rat L6 cells assessed as cell viability at 100 uM incubated for 24 hrs by MTT assay relative to control; type: toxicity, cell-based; conditions: L6 cells, read-out: Activity
[46] = system: Escherichia coli; assay: Disruption of plasma membrane integrity in Escherichia coli ATCC 25922 by SYTOX-Green uptake assay; type: functional, organism-based
[47] = system: Klebsiella pneumoniae; assay: Antibacterial activity against Klebsiella pneumoniae ATCC 27736 incubated for 16 to 18 hrs by broth dilution assay; type: functional; conditions: time 16-18 hrs
[48] = system: Escherichia coli; assay: Antibacterial activity against Escherichia coli ATCC 25922 infected in BALB/c mouse assessed as bacterial load in blood at 5 mg/kg, iv administered thrice at 1,3 and 5 hrs post-infection measured after 24 hrs post-last dose (Rvb ~ 4 x10^6 CFU/mL); type: functional; conditions: time 29 hrs
[49] = system: Staphylococcus aureus; assay: Bactericidal activity against Staphylococcus aureus ATCC 25923 incubated for 16 to 18 hrs; type: functional; conditions: time 16-18 hrs
[50] = Toxicity in mouse assessed as change in serum AST level at 15 mg/kg, iv administered each day for 5 days measured after 7 days post-last dose; type: organism-based; conditions: in vivo, 120 h, time 5 day
[51] = system: Staphylococcus aureus; assay: Bactericidal activity against Staphylococcus aureus ATCC 25923 at MIC incubated for about 135 mins by time kill assay relative to control; type: functional; conditions: 2.25 h
[52] = system: Escherichia coli; assay: Bactericidal activity against Escherichia coli ATCC 25922 at MIC incubated for about 100 mins by time kill assay relative to control; type: functional; conditions: 1.667 h

Substance: H-GRLVGRLVGRLVGRLV-OH
- Survival [1]: 60%
- MIC [2]: 1.8 µM
- fold change (FC) [3]: 2
- fold change (FC) [4]: 2
- Activity [5]: inactive
- MIC [6]: 1.8 µM
- MBC [7]: 1.8 µM
- Activity [8]: Active; Emerged As Swiftest Molecule
- remaining at 1 h [9]: ~80%
- Activity [10]: 1864 CFU/ml
- Activity [11]: 1020 CFU/ml
- MIC [12]: 1.8 µM
- MIC [13]: 1.8 µM
- Activity [14]: Active
- Activity [15]: Active
- Activity [16]: Non-toxic
- Activity [17]: Active
- Survival [18]: 100%
- MIC [19]: 3.6 µM
- Activity [20]: Active
- Activity [21]: Non-toxic
- Activity [22]: Active
- Activity [23]: Active
- fold change (FC) [24]: 2
- Activity [25]: Active; Emerged As Swiftest Molecule
- Activity [26]: Active
- MIC [27]: 1.8 µM
- Activity [28]: 2908 CFU/ml
- Activity [29]: Non-toxic
- Activity [30]: Active
- Activity [31]: Non-toxic
- viability at 24 h, 100 µM [32]: 75%
- Activity [33]: Active
- HC50 at 40 min [34]: 2 mM
- MIC [35]: 1.8 µM
- Activity [36]: 1652 CFU/ml
- Activity [37]: Non-toxic
- MIC [38]: 7.3 µM
- MIC [39]: 2.5 µM
- Activity [40]: Non-toxic
- Retention_time [41]: 20.24 min
- fold change (FC) [42]: 2
- Activity [43]: Non-toxic
- Activity [44]: Active
- viability at 24 h, 100 µM [45]: 75%
- Activity [46]: Active
- MIC [47]: 3.6 µM
- Activity [48]: ~800 CFU/ml
- MBC [49]: 1.8 µM
- Activity [50]: Non-toxic

Substance: H-GRLGRLGRLGRLGRL-OH
- MIC [2]: 15.2 µM
- MIC [6]: 15.2 µM
- MBC [7]: 15.2 µM
- MIC [12]: 3.8 µM
- MIC [13]: 15.2 µM
- Activity [14]: inactive
- Activity [17]: inactive
- MIC [19]: 15.2 µM
- Activity [20]: inactive
- Activity [51]: 100%
- Activity [22]: inactive
- Activity [26]: inactive
- MIC [27]: 15.2 µM
- viability at 24 h, 100 µM [32]: > 80%
- Activity [33]: inactive
- HC50 at 40 min [34]: 2 mM
- MIC [35]: 3.8 µM
- MIC [38]: 15.2 µM
- MIC [39]: 5 µM
- Retention_time [41]: 16.17 min
- Activity [43]: Non-toxic
- Activity [44]: inactive
- viability at 24 h, 100 µM [45]: > 80%
- Activity [46]: inactive
- MIC [47]: 60.6 µM
- MBC [49]: 7.6 µM
- Activity [52]: 100%
